Measured values published in US20220110936A1, “PHARMACEUTICAL COMPOSITION FOR TREATMENT OF NEURODEGENERATIVE DISEASES OR DISEASES CAUSED BY ABNORMALITY OF RNA BINDING PROTEIN AND APPLICATIONS THEREOF” (Shanghai Institute of Organic Chemistry, Chinese Academy of …, priority 2019, published 2022).

Columns and labels:
ALS patients = conditions: cited from earlier work
hnRNP A1 = biological target: T1, hnRNP A1 (Homo sapiens, UniProt P09651); test: In vitro liquid-liquid phase separation (LLPS) of hnRNP A1; conditions: added under critical conditions
T1 construct: host or cells: E. coli BL21 (DE3) pLysS
T1 sequence (P09651 1-320 isoform P09651-2): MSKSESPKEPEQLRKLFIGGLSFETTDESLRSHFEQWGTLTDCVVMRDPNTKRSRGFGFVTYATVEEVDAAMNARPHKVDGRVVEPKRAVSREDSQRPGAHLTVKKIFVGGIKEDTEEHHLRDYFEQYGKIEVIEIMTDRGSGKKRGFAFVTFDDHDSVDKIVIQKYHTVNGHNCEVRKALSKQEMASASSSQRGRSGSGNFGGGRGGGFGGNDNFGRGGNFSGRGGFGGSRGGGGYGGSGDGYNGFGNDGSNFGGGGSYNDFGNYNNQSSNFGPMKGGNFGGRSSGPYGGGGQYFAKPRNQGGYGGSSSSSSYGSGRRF
Protocol: pET9d-hnRNP A1 (Addgene) was used for hnRNP A1 protein expression in E. coli BL21 (DE3) pLysS (TranGeneBiotech). After 0.4 mM IPTG (SangonBiotech) induction at 25° C. for 15 h, the obtained bacteria were collected by centrifugation, and lysed by lysis buffer (50 mM Tris-HCl at pH 7.5, 2 mM DTT, 1 mM PMSF, 5% glycerin, and 0.1 mg/mL RNase A). Supernatant was collected by centrifugating the lysate at a high speed at 4° C. and then transferred to a 5 ml SP column in an AKTA (GE Healthcare) machine. The protein binded on the column was eluted with a mixture (9:1) of buffer A (50 mM Tris-HCl pH 7.5, 2 mM DTT and 5% glycerin) and buffer B (buffer A with 1 M NaCl). The eluted protein was purified by Superdex 75 16/600 column (GE Healthcare). The purified protein was dissolved in stock buffer (50 mM Tris-HCl pH 7.5, 500 mM NaCl and 2 mM DTT) for subsequent experiments.
The purified hnRNP A1 protein was mixed with a certain concentration of PAR (Trevigen) under a certain salt concentration. The reaction system was 50 mM Tris-HCl, pH 7.5, 10% (w/v) […] (Sigma) and 2 mM DTT. After the mixture was incubated at room temperature for 3 minutes, 5 μl was dropped on a glass slide for observation with an SP8 confocal microscope (Leica).

hnRNP A1 and TDP-43 = test: In vitro co-phase separation of hnRNP A1 and TDP-43 fragments
Protocol: TDP-43^1-274: The expression plasmid pET-28a-TDP-43^1-274-6×His was expressed in BL21 E. coli (DE3) (TranGeneBiotech) after induction by 50 uM IPTG (SangonBiotech) at 19° C. for 16 h. The resulting bacteria were collected by centrifugation, and lysed by lysis buffer (50 mM Tris-HCl, 500 mM NaCl, pH 8.0, 10 mM imidazole, 4 mM β-mercaptoethanol, 1 mM PMSF, and 0.1 mg/mL RNase A). Supernatant was collected by centrifugating the lysate at low temperature and then purified and enriched by Ni column (GE Healthcare). The protein enriched by Ni columns was eluted with eluent (50 mM Tris-HCl, 500 mM NaCl, pH 8.0, 250 mM imidazole and 4 mM β-mercaptoethanol), and then purified with Superdex 200 […] column (GE Healthcare). The purified protein was finally dissolved in a storage buffer (50 mM Tris-HCl pH 7.5, 300 mM NaCl and 2 mM DTT) for subsequent experiments.
TDP-43^274-414: This protein was expressed in BL21 E. coli (DE3) (TranGeneBiotech) by adding 50 uM IPTG (SangonBiotech) at 37° C. for inducing the expression of the protein in inclusion bodies. Collected bacteria were lysed with denaturing lysis buffer (50 mM Tris-HCl, pH 8.0 and 6 M guanidine hydrochloride). The lysis product was centrifuged at high speed for 1 h at 4° C. and the supernatant was collected for purification by Ni column. The proteins were eluted with denaturing elution solution (50 mM Tris-HCl at pH 8.0, 6 M guanidine hydrochloride and 50 mM imidazole) and then further purified by HPLC (Agilent) and the resulting product was lyophilized using a freeze-dryer (Thermo Fisher) and then prepared for use.
The purified TDP-43^1-274 and hnRNP A1 proteins (obtained in Example 6) were diluted separately into desalting reaction solution (50 mM Tris-HCl, pH 7.5, 500 mM NaCl and 4 mM Tris(2-Carboxyethyl) Phosphine (TCEP) (Invitrogen)), and DTT was removed using a desalting column (GE Healthcare). After desalting, TDP-43^1-274 and hnRNP A1 proteins were incubated for 2 h at room temperature with 5 times the volume of AlexaFluor-555 C2-malemide (Invitrogen) or AlexaFluor-647 C2-malemide (Invitrogen), respectively. […]

[1] = test system: stress granules containing hnRNP A1 protein in HeLa cells; test: Assembly of stress granules containing hnRNP A1 under sodium arsenite (immunofluorescence); format: cell-based, human; conditions: 20 μM, 3 h pretreatment, 100 μM sodium arsenite 0, 10, 30 min, vs DMSO
Protocol: HeLa cells were cultivated in Dulbecco's modified Eagle's medium (DMEM) (sigma) containing 10% fetal bovine serum (FBS) (Biowest). Cells were purchased from American Type Culture Collection (ATCC) and grown at 37° C., 5% carbon dioxide. In the present invention, unless otherwise specified, cell were seeded 12-18 hours in advance in 24-well plates (Corning) containing glass slides (Thermo) at a density of 2×10^5/ml experiments if the cells were used for subsequent immunofluorescence assays, cells were seeded 12-18 hours in advance in 12-well or 6-well plates at a density of 5×10^5/ml if the cells were used for subsequent WB detection assays.
Plasmid transfection: The plasmid pCAG-hnRNP A1-Flag constructed in 1.1.1 was transfected with PolyJet™ reagent (SignaGen) (the amount of transfection plasmid is 0.8 μg/ml, and the ratio of transfection reagent to transfection plasmid is 1:2 (mass volume percentage, for example, […])). Cells were seeded 12-18 hours in advance and transfection was started when the confluence of cell reached about 70%. About 6 hours after transfection, culture medium were changed to ensure growth status of cells. After the exogenous protein was expressed for 24-48 h, the next step of the experiment can be carried out. […]

[2] = test system: stress granules containing TDP-43 protein in HeLa cells; test: Assembly of stress granules containing TDP-43 under sodium arsenite (immunofluorescence); format: cell-based, human; conditions: 20 μM, 3 h pretreatment, vs DMSO
Protocol: Drug treatment: in order to inhibit the level of intracellular PARylation, 20 μM PARP inhibitor Olaparib (Selleck) was added 3 hours before harvesting the plasmid-transfected samples mentioned above, and the control group was treated with an equal volume of DMSO.
In order to induce the production of stress granules, the HeLa cells collected in 1.1.3 were treated with 100 μM sodium arsenite (Sigma) for 0, 10 and 30 minutes, respectively.
Cells harvested after treatment in 1.1.4 above were washed once with PBS, fixed with 4% paraformaldehyde (Sangon Biotech) for 15 min, permeabilized with 0.5% Triton-X100 (Sigma) solution for 10 min, and finally incubated with PBST solution containing 3% goat serum (Sigma) (0.1% Tween 20 (Sigma) in PBS) for 1 h at room temperature and incubated overnight at 4° C. with antibodies (Rabbit anti-TIAR (CST), Mouse anti-Flag (Sigma)). The cells were washed with PBST three times at room temperature and incubated for 1 hour at room temperature. After washing three times with PBST at room temperature, fluorescent secondary antibodies (goat anti-mouse-Alexa Fluor 488 (Thermo), goat anti-rabbit-Alexa Fluor 568 (Thermo)) were added for labeling, and then Vectashield Antifade Mounting Medium with DAPI (Vector Laboratories) was used to seal the slices. The signals were observed and acquired under a 100× oil microscope on a Leica TCS SP8 confocal microscope. […]

[3] = test system: motor neuron-like NSC-34 cells overexpressing hnRNP A1; test: Cell viability (CCK-8) of NSC-34 cells overexpressing hnRNP A1; format: cell-based
Protocol: (§1) 293T cells were cultured in DMEM (sigma) containing 10% FBS (Biowest). NSC-34 cells were cultured with RPMI 1640 medium (Gibco, 11875-093) containing 10% FBS. Cells were grown at 37° C. with 5% carbon dioxide. Cells were both purchased from ATCC.
(§2) Lentiviral packaging plasmids and the corresponding exogenous hnRNP A1 or TDP-43 expression plasmids were transfected simultaneously in 293T cells with PolyJet™ transfection reagent. After 48 hours of transfection, the cell culture was collected by filtration with a 0.45 μm syringe filter (Millipore) and concentrated with Lenti-X™ Concentrator (Clontech), and the concentrated product was used for subsequent infection of NSC-34 cells.
(§3) NSC-34 cells were seeded one day in advance in 96-well plates (Corning) and the corresponding lentivirus was added for transfection. Cell viability was determined 48-72 h after transfection using Cell Counting Kit-8 (CCK-8) (Dojindo) kit. In brief, 10 μL of CCK-8 solution was added to each well. After incubation at 37° C. for 2.5 h, the absorbance light at 450 nm of the solution was detected with a Synergy2 microplate reader (BioTek Instruments) and cell viability values were calculated according to the instructions.
(§4) The siRNA transfection procedure was the same as that in Example 1, and the transfection time was 48-60 h. The corresponding siRNA sequences are as follows.

PARP = test: Western blot of intracellular PARylation level in HeLa cells; format: cell-based, human; conditions: 20 μM, 3 h, vs DMSO
Protocol: Drug treatment: in order to inhibit the level of intracellular PARylation, 20 μM PARP inhibitor Olaparib (Selleck) was added 3 hours before harvesting the plasmid-transfected samples mentioned above, and the control group was treated with an equal volume of DMSO. […]
Immunoblotting assay: the above boiled proteins were separated by 10% Bis-Tris SDS-PAGE (Invitrogen), then transferred to 0.22 μm PVDF membrane (Millipore), sealed with 5% skimmed milk powder, and added with corresponding antibodies (anti-pan-ADP-ribose binding reagent (Millipore), mouse anti-Tubulin (MLB), rabbit anti-PRAG (CST), mouse anti-GAPDH (Proteintech)) for immunoblotting assay. Membranes incubated with primary antibodies were then incubated with the corresponding secondary antibodies coupled with HRP (goat anti-mouse (Sigma), goat anti-rabbit (sigma)), and corresponding protein signals were detected in Amersham Imager 600 (GE Healthcare) using ECL luminescent solution (Tanon).

[4] = test system: motor neuron-like NSC-34 cells overexpressing TDP-43; test: Cell viability (CCK-8) of NSC-34 cells overexpressing TDP-43; format: cell-based; conditions: 5 μM
Protocol: as §1, §2, §3, §4

Compound: CC1=NN(c2ccccc2)C(=O)C1 [Edaravone]
- physical impairment in ALS patients (ALS patients; phase III clinical trials): alleviate some degree of physical impairment

Compound: Nc1nc2ccc(OC(F)(F)F)cc2s1 [Riluzole]
- prolongation of the patient's life (ALS patients; ALS patients): 3-6 months
- side effects (ALS patients; ALS patients): nausea, dizziness and even pneumonia

Compound: heparin
- LLPS of hnRNP A1 (hnRNP A1): did not promote

Compound: poly(ADP-ribose) [PAR]
- co-phase separation of hnRNP A1 and TDP-43 1-274 (hnRNP A1 and TDP-43): can promote
- co-phase separation of hnRNP A1 and TDP-43 274-414 (hnRNP A1 and TDP-43; high concentration): cannot promote
- phase separation of hnRNP A1 or TDP-43 1-274 alone (hnRNP A1 and TDP-43; high concentration): cannot promote
- LLPS of hnRNP A1 (hnRNP A1): promoted

Compound: O=C(c1cc(Cc2n[nH]c(=O)c3ccccc23)ccc1F)N1CCN(C(=O)C2CC2)CC1 [Olaparib]
- formation of intracellular stress granules and stress granules containing hnRNP A1 [1]: delayed
- formation of intracellular stress granules and stress granules containing TDP-43 [2]: delayed
- hnRNP A1-induced neurocytotoxicity [3]: significant inhibitory effect
- intracellular level of PARylation (WB) (PARP): significantly reduce
- cytotoxicity induced by overexpression of TDP-43 [4]: can reduce the cytotoxicity
